What all share (assay): Kinase binding assay (kinase-tagged T7 phage, qPCR), Kd
The target in one experiment is T1, FGFR1 (Homo sapiens, UniProt P11362).
T1 construct: made in house; host or cells: E. coli derived from BL21, infected with T7 phage
To be noted: for Kd: read-out: FGFR1 (Kd nM).

For another experiment, the target named is T2, FGFR2 (Homo sapiens, UniProt P21802).
T2 construct: made in house; host or cells: E. coli derived from BL21, infected with T7 phage
To be noted: for Kd: read-out: FGFR2 (Kd nM).

In the next experiment the target is T3, FGFR3 (Homo sapiens, UniProt P22607).
T3 construct: made in house; host or cells: E. coli derived from BL21, infected with T7 phage
The note with it: for Kd: read-out: FGFR3 (Kd nM).

The target in a further experiment is T4, FGFR4 (Homo sapiens, UniProt P22455).
T4 construct: made in house; host or cells: E. coli derived from BL21, infected with T7 phage
To be noted: for Kd: read-out: FGFR4 (Kd nM).

Structures are written as SMILES. pKd: −log10 of the molar value. Where a name gives a salt, the structure may show the parent alone. Read-outs that look alike come from different tables or passages of the source.

T2 sequence (P21802 22-821): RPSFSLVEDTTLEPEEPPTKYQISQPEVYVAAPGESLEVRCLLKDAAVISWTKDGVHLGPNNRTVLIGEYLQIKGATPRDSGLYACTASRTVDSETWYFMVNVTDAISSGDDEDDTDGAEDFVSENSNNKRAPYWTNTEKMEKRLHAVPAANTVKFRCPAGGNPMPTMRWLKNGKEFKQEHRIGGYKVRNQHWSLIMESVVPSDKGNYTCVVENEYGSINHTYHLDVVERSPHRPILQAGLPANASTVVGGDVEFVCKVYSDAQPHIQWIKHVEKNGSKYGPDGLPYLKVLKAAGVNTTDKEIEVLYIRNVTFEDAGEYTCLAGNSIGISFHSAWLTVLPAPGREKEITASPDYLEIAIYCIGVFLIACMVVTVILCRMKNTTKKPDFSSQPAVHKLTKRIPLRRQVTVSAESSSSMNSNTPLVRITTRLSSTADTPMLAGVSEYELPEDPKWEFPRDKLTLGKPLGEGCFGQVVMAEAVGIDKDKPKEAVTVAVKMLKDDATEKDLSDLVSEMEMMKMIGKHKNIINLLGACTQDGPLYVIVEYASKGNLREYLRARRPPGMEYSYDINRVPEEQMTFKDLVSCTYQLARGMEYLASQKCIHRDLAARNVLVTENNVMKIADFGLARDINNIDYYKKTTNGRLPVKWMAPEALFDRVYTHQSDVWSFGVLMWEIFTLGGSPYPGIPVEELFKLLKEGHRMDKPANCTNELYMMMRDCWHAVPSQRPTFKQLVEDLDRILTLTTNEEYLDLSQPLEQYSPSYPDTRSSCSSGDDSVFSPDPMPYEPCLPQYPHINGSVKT
T4 sequence (P22455 22-802): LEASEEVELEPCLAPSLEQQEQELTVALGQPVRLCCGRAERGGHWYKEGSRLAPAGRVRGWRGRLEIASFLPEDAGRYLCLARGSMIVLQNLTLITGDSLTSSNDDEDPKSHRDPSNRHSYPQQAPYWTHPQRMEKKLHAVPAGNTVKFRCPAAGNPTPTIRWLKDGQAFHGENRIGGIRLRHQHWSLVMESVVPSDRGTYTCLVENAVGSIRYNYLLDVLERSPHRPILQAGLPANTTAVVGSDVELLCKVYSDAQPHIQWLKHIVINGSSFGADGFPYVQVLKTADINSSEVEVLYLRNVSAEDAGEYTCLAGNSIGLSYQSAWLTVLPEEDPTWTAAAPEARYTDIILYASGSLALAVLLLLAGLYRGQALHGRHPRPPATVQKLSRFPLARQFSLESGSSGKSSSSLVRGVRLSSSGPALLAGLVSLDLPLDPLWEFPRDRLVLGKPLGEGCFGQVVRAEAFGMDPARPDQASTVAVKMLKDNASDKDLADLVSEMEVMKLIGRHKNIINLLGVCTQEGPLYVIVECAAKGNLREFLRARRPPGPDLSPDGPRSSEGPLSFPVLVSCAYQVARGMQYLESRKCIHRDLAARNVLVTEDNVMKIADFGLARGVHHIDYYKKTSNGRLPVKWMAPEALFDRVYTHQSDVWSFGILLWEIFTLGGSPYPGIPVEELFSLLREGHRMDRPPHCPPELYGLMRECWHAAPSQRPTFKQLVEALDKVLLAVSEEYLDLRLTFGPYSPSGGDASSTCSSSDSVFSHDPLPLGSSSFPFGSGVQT
T1 sequence (P11362 22-822): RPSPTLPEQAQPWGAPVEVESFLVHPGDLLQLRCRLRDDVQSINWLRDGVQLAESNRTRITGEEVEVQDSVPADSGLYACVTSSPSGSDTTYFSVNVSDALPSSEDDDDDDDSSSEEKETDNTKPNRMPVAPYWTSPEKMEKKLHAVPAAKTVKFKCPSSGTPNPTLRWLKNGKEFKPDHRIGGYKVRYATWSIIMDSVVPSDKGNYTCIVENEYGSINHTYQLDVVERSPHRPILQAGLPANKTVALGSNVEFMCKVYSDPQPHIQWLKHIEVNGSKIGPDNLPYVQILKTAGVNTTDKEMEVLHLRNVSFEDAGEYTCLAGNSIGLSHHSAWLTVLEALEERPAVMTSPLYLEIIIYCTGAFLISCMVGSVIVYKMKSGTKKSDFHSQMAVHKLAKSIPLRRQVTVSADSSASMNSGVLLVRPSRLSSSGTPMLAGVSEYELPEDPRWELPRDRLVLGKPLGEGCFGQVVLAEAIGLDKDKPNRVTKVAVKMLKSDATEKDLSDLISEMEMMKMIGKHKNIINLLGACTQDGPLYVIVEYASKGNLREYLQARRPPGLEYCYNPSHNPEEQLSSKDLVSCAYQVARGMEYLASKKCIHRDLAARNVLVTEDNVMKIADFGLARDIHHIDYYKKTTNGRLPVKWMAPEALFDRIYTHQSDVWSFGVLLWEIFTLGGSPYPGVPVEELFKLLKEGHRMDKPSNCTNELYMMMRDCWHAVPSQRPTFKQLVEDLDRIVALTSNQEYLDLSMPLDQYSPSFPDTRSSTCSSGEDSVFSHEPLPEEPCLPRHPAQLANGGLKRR
T3 sequence (P22607 23-806): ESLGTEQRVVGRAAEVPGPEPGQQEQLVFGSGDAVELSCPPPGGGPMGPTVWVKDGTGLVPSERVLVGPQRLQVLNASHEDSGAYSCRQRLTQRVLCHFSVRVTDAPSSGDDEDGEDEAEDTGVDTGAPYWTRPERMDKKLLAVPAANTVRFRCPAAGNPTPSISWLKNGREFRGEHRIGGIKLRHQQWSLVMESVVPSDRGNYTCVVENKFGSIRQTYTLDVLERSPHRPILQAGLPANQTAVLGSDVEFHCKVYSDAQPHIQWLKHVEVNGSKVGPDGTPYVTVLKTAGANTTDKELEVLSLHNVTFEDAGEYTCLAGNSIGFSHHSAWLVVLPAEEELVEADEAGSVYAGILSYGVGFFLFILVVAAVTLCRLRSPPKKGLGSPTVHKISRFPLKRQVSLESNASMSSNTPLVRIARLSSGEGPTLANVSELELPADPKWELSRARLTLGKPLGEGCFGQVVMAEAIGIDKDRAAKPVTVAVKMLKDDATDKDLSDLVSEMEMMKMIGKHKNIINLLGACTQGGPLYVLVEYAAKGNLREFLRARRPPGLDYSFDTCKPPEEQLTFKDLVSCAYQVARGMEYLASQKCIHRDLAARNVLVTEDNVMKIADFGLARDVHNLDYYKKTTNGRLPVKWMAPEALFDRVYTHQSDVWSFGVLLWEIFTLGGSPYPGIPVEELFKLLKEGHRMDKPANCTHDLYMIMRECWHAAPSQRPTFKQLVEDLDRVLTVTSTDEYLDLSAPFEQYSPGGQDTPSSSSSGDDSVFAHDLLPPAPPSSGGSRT

Consider `C[C@@H](Oc1ccc2[nH]nc(-c3ccc4c(c3)COC3(CCNCC3)O4)c2c1)c1c(Cl)cncc1Cl` [Example 94, (R)-6-(5-(1-(3,5-Dichloropyridin-4-yl)ethoxy)-1H-indazol-3-yl)-4H-spiro[benzo[d][1,3]dioxine-2,4′-piperidine] TFA salt], for which the pKd on FGFR1, on FGFR2, at FGFR3 and on FGFR4 was 7.00 to 10.00 throughout.
Consider `COc1cc(C#N)cc(-c2n[nH]c3cc(OC)c(O[C@@H](C)c4c(C)cnnc4C)cc23)c1` [Example 97, (S)-3-(5-(1-(3,5-dimethylpyridazin-4-yl)ethoxy)-6-methoxy-1H-indazol-3-yl)-5-methoxybenzonitrile], for which the Kd at FGFR1 is greater than 1000 nM; at FGFR2, greater than 1000 nM; at FGFR3, greater than 1000 nM; on FGFR4, 250 to 1000 nM.
With `COc1cc(-c2n[nH]c3cc(OC)c(O[C@H](C)c4c(C)cnnc4C)cc23)cc(C#N)n1` [Example 98, (R)-4-(5-(1-(3,5-dimethylpyridazin-4-yl)ethoxy)-6-methoxy-1H-indazol-3-yl)-6-methoxypicolinonitrile], the Kd on FGFR1 is 100 to 250 nM; on FGFR2 it was 100 to 250 nM; on FGFR3 it was 100 to 250 nM; at FGFR4, 0.1 to 100 nM.
Regarding `CCN1CCC2(CC1)CC(=O)c1cc(-c3n[nH]c4ccc(O[C@H](C)c5c(C)cnnc5C)cc34)ccc1O2` [Example 99, (R)-6-(5-(1-(3,5-dimethylpyridazin-4-yl)ethoxy)-1H-indazol-3-yl)-1′-ethylspiro[chroman-2,4′-piperidin]-4-one], the Kd on FGFR1, on FGFR2, at FGFR3 and on FGFR4 was 0.1 to 100 nM throughout.
For `COc1cc(-c2n[nH]c3ccc(O[C@H](C)c4c(C)cnnc4C)cc23)cc(C#N)n1` [Example 100, (R)-4-(5-(1-(3,5-dimethylpyridazin-4-yl)ethoxy)-1H-indazol-3-yl)-6-methoxypicolinonitrile], the Kd was in the range of 250 to 1000 nM on FGFR1, 250 to 1000 nM on FGFR2, 100 to 250 nM on FGFR3 and 0.1 to 100 nM on FGFR4.
Take `COc1cc2[nH]nc(-c3cc(C#N)c(OC)c(OC)c3)c2cc1O[C@H](C)c1c(C)cnnc1C` [Example 102, (R)-5-(5-(1-(3,5-dimethylpyridazin-4-yl)ethoxy)-6-methoxy-1H-indazol-3-yl)-2,3-dimethoxybenzonitrile]: the Kd at FGFR1 lay in the range of 100 to 250 nM; at FGFR2, 100 to 250 nM; at FGFR3 it was 0.1 to 100 nM; on FGFR4, 0.1 to 100 nM.
Take `CCN1CCC2(CC1)CC(O)c1cc(-c3n[nH]c4ccc(O[C@H](C)c5c(Cl)cncc5Cl)cc34)ccc1O2` (stereo partly drawn) [Example 103, 6-[5-[(1R)-1-(3,5-Dichloro-4-pyridyl)ethoxy]-1H-indazol-3-yl]-1′-ethyl-spiro[chromane-2,4′-piperidine]-4-ol]: the Kd was 45 nM at FGFR1 (given as a number, not a class symbol); 100 to 250 nM at FGFR2; 0.1 to 100 nM on FGFR3; 0.1 to 100 nM on FGFR4.
Regarding `C[C@@H](Oc1ccc2[nH]nc(-c3ccc4c(c3)CCC3(CCNCC3)O4)c2c1)c1c(Cl)cncc1Cl` [Example 104, 6-[5-[(1R)-1-(3,5-dichloro-4-pyridyl)ethoxy]-1H-indazol-3-yl]spiro[chromane-2,4′-piperidine]], the equilibrium dissociation constant (Kd) at FGFR1, at FGFR2, on FGFR3 and at FGFR4 was 0.1 to 100 nM each time.
With `COc1cc(-c2n[nH]c3ccc(O[C@H](C)c4c(Cl)cncc4Cl)cc23)cc(C#N)c1OC1CCNCC1` [Example 105, 5-[5-[(1R)-1-(3,5-dichloro-4-pyridyl)ethoxy]-1H-indazol-3-yl]-3-methoxy-2-(4-piperidyloxy)benzonitrile], the Kd at FGFR1 was greater than 1000 nM; on FGFR2, greater than 1000 nM; on FGFR3 it was 250 to 1000 nM; at FGFR4, 0.1 to 100 nM.
Turning to `CCN1CCC2(CC1)CC(O)c1cc(-c3n[nH]c4ccc(O[C@H](C)c5c(C)cnnc5C)cc34)ccc1O2` (stereo partly drawn) [Example 107, 6-(5-((R)-1-(3,5-dimethylpyridazin-4-yl)ethoxy)-1H-indazol-3-yl)-1′-ethylspiro[chroman-2,4′-piperidin]-4-ol], the Kd on FGFR1, at FGFR2, at FGFR3 and on FGFR4 was 0.1 to 100 nM each time.
For `COc1c(C)cc(-c2n[nH]c3ccc(O[C@H](C)c4c(Cl)cncc4Cl)cc23)cc1C#N` [Example 108], the Kd was 250 to 1000 nM at FGFR1, 250 to 1000 nM on FGFR2, 0.1 to 100 nM on FGFR3 and 0.1 to 100 nM on FGFR4.
As to `C[C@@H](Oc1ccc2[nH]nc(-c3cc(C#N)cc(C4CC4)c3)c2c1)c1c(Cl)cncc1Cl` [Example 109, (R)-3-cyclopropyl-5-(5-(1-(3,5-dichloropyridin-4-yl)ethoxy)-1H-indazol-3-yl)benzonitrile], the Kd at FGFR1 was greater than 1000 nM; on FGFR2 it was greater than 1000 nM; at FGFR3 it was 250 to 1000 nM; at FGFR4, 0.1 to 100 nM.
Turning to `Cc1cc(-c2n[nH]c3ccc(O[C@H](C)c4c(C)cnnc4C)cc23)cc(C#N)c1OC1CCN(C(C)C)CC1` [Example 110, (R)-5-(5-(1-(3,5-dimethylpyridazin-4-yl)ethoxy)-1H-indazol-3-yl)-2-((1-isopropylpiperidin-4-yl)oxy)-3-methylbenzonitrile], the Kd on FGFR1, at FGFR2, on FGFR3 and at FGFR4 was 0.1 to 100 nM each time.
As for `Cc1cc(-c2n[nH]c3ccc(O[C@H](C)c4c(C)cnnc4C)cc23)cc(C#N)c1OC1CCN(C2COC2)CC1` [Example 113, (R)-5-(5-(1-(3,5-dimethylpyridazin-4-yl)ethoxy)-1H-indazol-3-yl)-3-methyl-2-((1-(oxetan-3-yl)piperidin-4-yl)oxy)benzonitrile], the Kd at FGFR1, at FGFR2, on FGFR3 and on FGFR4 was 0.1 to 100 nM each time.
Regarding `CCN1CCC(Oc2c(C)cc(-c3n[nH]c4ccc(O[C@H](C)c5c(C)cnnc5C)cc34)cc2C#N)CC1` [Example 115, (R)-5-(5-(1-(3,5-dimethylpyridazin-4-yl)ethoxy)-1H-indazol-3-yl)-2-((1-ethylpiperidin-4-yl)oxy)-3-methylbenzonitrile], the Kd on FGFR1, at FGFR2, at FGFR3 and at FGFR4 was 0.1 to 100 nM in each case.
For the compound `COc1cc2[nH]nc(-c3cc(C)c(OC)c(C#N)c3)c2cc1O[C@H](C)c1c(C)cnnc1C` [Example 116, (R)-5-(5-(1-(3,5-dimethylpyridazin-4-yl)ethoxy)-6-methoxy-1H-indazol-3-yl)-2-methoxy-3-methylbenzonitrile], the Kd at FGFR1, on FGFR2, at FGFR3 and at FGFR4 was 0.1 to 100 nM throughout.
`COc1cc2[nH]nc(-c3cc(C#N)cc(C4CC4)c3)c2cc1O[C@H](C)c1c(C)cnnc1C` [Example 117, (R)-3-cyclopropyl-5-(5-(1-(3,5-dimethylpyridazin-4-yl)ethoxy)-6-methoxy-1H-indazol-3-yl)benzonitrile]: the Kd at FGFR1 lay within 100 to 250 nM; on FGFR2, 250 to 1000 nM; on FGFR3 it was 100 to 250 nM; on FGFR4, 0.1 to 100 nM.
Consider `Cc1cc(-c2n[nH]c3ccc(O[C@H](C)c4c(C)cnnc4C)cc23)cc(C#N)c1OC1CCN(C2CCC2)CC1` [Example 120, (R)-2-((1-cyclobutylpiperidin-4-yl)oxy)-5-(5-(1-(3,5-dimethylpyridazin-4-yl)ethoxy)-1H-indazol-3-yl)-3-methylbenzonitrile], for which the Kd on FGFR1, on FGFR2, on FGFR3 and on FGFR4 was 0.1 to 100 nM in each case.
Regarding `CCN1CCC2(CCc3cc(-c4n[nH]c5ccc(O[C@H](C)c6c(Cl)cncc6Cl)cc45)ccc3O2)CC1` [Example 121, 6-[5-[(1R)-1-(3,5-dichloro-4-pyridyl)ethoxy]-1H-indazol-3-yl]-1′-ethylspiro[chromane-2,4′-piperidine]], the Kd on FGFR1, at FGFR2, at FGFR3 and at FGFR4 was 0.1 to 100 nM each time.
Take `C[C@@H](Oc1ccc2[nH]nc(-c3cnc(OCC(C)(C)O)c(C#N)c3)c2c1)c1c(Cl)cncc1Cl` [Example 122, 5-[5-[(1R)-1-(3,5-dichloro-4-pyridyl)ethoxy]-1H-indazol-3-yl]-2-(2-hydroxy-2-methyl-propoxy)pyridine-3-carbonitrile]: the Kd at FGFR1, on FGFR2, at FGFR3 and at FGFR4 was 0.1 to 100 nM in each case.
With `COc1cc(-c2n[nH]c3ccc(O[C@H](C)c4c(Cl)cnc(F)c4Cl)cc23)cc2c1OC1(CCN(C(C)C)CC1)OC2` [Example 123, (R)-6-(5-(1-(3,5-dichloro-2-fluoropyridin-4-yl)ethoxy)-1H-indazol-3-yl)-1′-isopropyl-8-methoxy-4H-spiro[benzo[d][1,3]dioxine-2,4′-piperidine]], the Kd at FGFR1 lay in the range of 250 to 1000 nM; at FGFR2 it was 250 to 1000 nM; on FGFR3 it was 0.1 to 100 nM; at FGFR4, 0.1 to 100 nM.
On to `CC(C)N1CCC(Oc2ccc(-c3n[nH]c4ccc(O[C@H](C)c5c(Cl)cncc5Cl)cc34)cc2C#N)CC1` [Example 124, 5-[5-[(1R)-1-(3,5-dichloro-4-pyridyl)ethoxy]-1H-indazol-3-yl]-2-[(1-isopropyl-4-piperidyl)oxy]benzonitrile], for which the Kd at FGFR1, at FGFR2, at FGFR3 and at FGFR4 was 0.1 to 100 nM each time.

One may read the pKd as −log10 of the Kd, conventionally taken in molar units. Low values mean a large Kd, high ones a small Kd. As usually defined, the Kd is a measure of binding affinity in units of concentration.

The values above are taken from patent publication US20240316022A1 (TYRA BIOSCIENCES, INC., priority 2021, published 2024).
